The values below come from patent publication US11478459B2, “Pharmaceutical preparation” (Merck Patent GmbH, priority 2017, dated 2022).

In brackets after ≈: the same amount, converted by molar mass. Where two headings read alike, the source gives them in different places.

This data set is described as follows: Solubility of the Compound in water, biorelevant media (FaSSIF, FeSSIF) and oils. In kind it is physicochemical.

As for `COc1cc2ncc3c(c2cc1-c1cnn(C)c1)n(-c1ccc(C#N)cc1F)c(=O)n3C` [3-Fluoro-4-[7-methoxy-3-methyl-8-(1-methyl-1H-pyrazol-4-yl)-2-oxo-2,3-dihydro-imidazo[4,5-c]quinolin-1-yl]-benzonitrile], the “DCS classification (Butler and Dressman, 2010)” value is recorded as “DCS IIb”. For the setting “FaSSIF, read-out: solubility in Fasted Simulated Intestinal Fluid (FaSSIF)”, the solubility (in general, how much of the substance goes into solution per volume) is 0.25 µg/mL (≈ 0.584 µM). For the same molecule, the solubility (FeSSIF, read-out: solubility in FedState Simulated Intestinal Fluid (FeSSIF)) is 1 µg/mL (≈ 2.33 µM). In addition, the dose/solubility ratio result (estimated efficacious human dose of >100 mg) is on record as “at least 100,000”. For the same molecule, for the setting “in words”, the “solubility in the tested oils” value was “low solubility”; the “solubility in water and biorelevant media” value is recorded as “very low solubility”.

As for `COc1cc2ncc3c(c2cc1-c1cnn(C)c1)n(-c1ccc(C#N)cc1F)c(=O)n3C` [Compound, 3-Fluoro-4-[7-methoxy-3-methyl-8-(1-methyl-1H-pyrazol-4-yl)-2-oxo-2,3-dihydro-imidazo[4,5-c]quinolin-1-yl]-benzonitrile], the solubility (FaSSIF, as restated in Example 5, read-out: solubility of the Compound in FaSSIF) was roughly 0.25 µg/mL (≈ 0.584 µM).
